SMILES strings stand for the structures.

The subject of experiment [1] is axon shaft mitochondria of DRG neurons. As to the kind of experiment: FRAP of Mito-GFP in proximal axon shaft segments of DRG neurons. The class given is cell-based, rat. The text has this: To determine if the effect of growth inhibitors on mitochondrial recovery was limited to distal axons, we performed FRAP on more proximal segments of the axon shaft in DRG neurons expressing Mito-GFP. For analyses of recovery, the bleached ROIs were divided into four subregions along the axon length so that we could distinguish anterograde from retrograde transport-driven Mito-GFP recovery. […] Since this effect of MAG-Fc on recovery could derive from either axons or cell body, we cultured dissociated DRGs in microfluiclic devices where we could limit exposure to MAG-Fc and TubA to the axons.
Mito-KR- and Mito-GFP-expressing DRG neurons were used for FRAP analyses at 48-72 h after transfection. To evaluate mitochondrial motility in Mito-KR-expressing neurons, Mito-KR signals were photobleached using continual exposure to an argon laser set at 594 nm for 30 s (100% laser power) The bleached ROI was then monitored for recovery using an argon laser set at 580 nm every 10 s over 16 min (13% laser power). […]
Vesicle trafficking was quantified using differential ImageJ Difference Tracker Plug-in (Andrews et al., 2010). 50-80-μm long unbranched axon segments at approximately the mid-region between growth cone and cell body were analyzed. […] The distance between the growth tip at end of the post-CALI sequence and the pre-CALI baseline was measured using LAS-X software. […]

The next experiment has as its system Miro1. In words: Anti-Ac-Lys immunoprecipitation of Miro1 from DRG lysates. The class given is cell-based, rat. How it is done: Protein acetylome profiles from nonneuronal cells have reported acetylation of Miro1/2 and Milton 1/2 but not of Syntaphilin (Choudhary et al., 2009; Lundby et al., 2012; Wagner et al., 2012).
DRG neurons were lysed in 100 mM KCl, 5 mM MgCl2, 10 mM Hepes, pH 7.4, 1 mM DTT, and 0.5% NP-40 supplemented with lx protease inhibitor cocktail (Roche). The lysates were passed through a 25-gauge needle five times and cleared by centrifugation at 12,000 g for […]. Equal amounts of the supernatants were then incubated with primary antibodies overnight, and immunocomplexes were precipitated with Protein G-Dynabeads (Invitrogen) for an additional 2 h at 4° C. with rotation. A cocktail of rabbit and mouse anti-Ac-Lys antibodies (5 μg each; Cell Signaling; 9441 and 9681) was used directly for analyses of Myc-Miro1 transfected cultures by immunoprecipitation. For analysis of endogenous Miro1 acetylation, the anti-Lys antibody cocktail (5 μg of each) was directly cross-linked to 5 mg of M-270 epoxy beads (Dynabeads) using the Dynabeads antibody coupling kit according to the manufacturer's instructions (Life Technologies; 14311D). […]
For immunoblotting, protein lysates or immunoprecipitates were denatured by boiling in Laemmli sample buffer, fractionated by SDS-PAGE, and transferred to nitrocellulose membranes. […] Signals were detected using ECL Prime (GE Healthcare) after extensive washing.

Regarding `CN1CCc2c(c3ccccc3n2Cc2ccc(C(=O)NO)cc2)C1` [TubA, tubastatin], the “effect on MAG-Fc's attenuation of axonal Mito-GFP recovery (axon shaft)” value in experiment [1] (HDAC6 inhibition with TubA) is “prevented by HDAC6 inhibition”. The “Mito-GFP recovery pattern along axon shaft” value in experiment [1] (TubA-treated cultures) is reported as “more rapid recovery in proximal segments”. In addition, the “pull-down efficiency of Miro1 with anti-Ac-Lys antibody cocktail” value in the experiment on Miro1 (10 μM TubA for 4 h, n=4) is 14.1±2.2%. The “anti-Ac-Lys immunoprecipitated Miro1 band” value in the experiment with Miro1 (treatment with TubA) is “modestly increasing”.

Values taken from patent US20210330756A1, “Acetylation of Miro1” (University of South Carolina, priority 2020, published 2021).
